Measured values taken from patent US6399593B1, “Cyclic regimens using cyclic urea and cyclic amide derivatives” (Wyeth, priority 1999, dated 2002).

System: T47D cells
Test: T47D cell proliferation assay (BrdU incorporation)
Type: cell-based
Details: second print headed Table 3, individual studies (Exp 1-3)
Method: The objective of this assay is the determination of progestational and antiprogestational potency by using a cell proliferation assay in T47D cells. A compound's effect on DNA synthesis in T47D cells is measured.
DMEM:F12 (1:1) (GIBCO, BRL) supplemented with 10% (v/v) fetal bovine serum (not heat-inactivated), 100 U/ml penicillin, […], and 2 mM GlutaMax (GIBCO, BRL).
Minimum Essential Medium (MEM) (#51200-038GIBCO, BRL) phenol red-free supplemented with 0.5% charcoal stripped fetal bovine serum, 100 U/ml penicillin, 200 mg/ml streptomycin, and 2 mM GlutaMax (GIBCO, BRL).
Stock T47D cells are maintained in growth medium. For BrdU incorporation assay, cells are plated in 96-well plates (Falcon, Becton Dickinson Labware) at 10,000 cells/well in growth medium. […]
At the end of BrdU labeling, the medium is removed and BrdU incorporation is measured using a cell proliferation ELISA kit (#RPN 250, Amersham Life Science) according to manufacturer's instructions. […] Then 25 μl of 1 M sulfuric acid is added to each well to stop color reaction and optical density is read in a plate reader at 450 nm within 5 min.
Square root-transformed data are used for analysis of variance and nonlinear dose response curve fitting for both agonist and antagonist modes. […] EC50 or IC50 values are calculated from the retransformed values. […]

`CC(=O)O[C@]1(C(C)=O)CC[C@H]2[C@@H]3C[C@H](C)C4=CC(=O)CC[C@]4(C)[C@H]3CC[C@@]21C` [MPA, medroxyprogesterone acetate] gave an EC50 of 17 pM.
